Columns and labels:
[1] = system: bromodomains of the BET family; settings: Bres et al. 2008; cited from earlier work
[2] = system: CD11b on CD14+ monocytes; assay: CD11b expression levels on CD14+ monocytes in patients treated with TEN-010 (flow cytometry, MESF); format: in vivo, human
Text: Patients aged 18 years or older with histologically confirmed advanced solid tumors with progressive disease requiring therapy were enrolled in the study. In particular, patients with histologically confirmed advanced solid malignancy with progressive disease, NMC, or advanced aggressive diffuse large B cell lymphoma (DLBCL) were enrolled in the study. Patients with hemotologic malignancies were not enrolled in the study. TEN-010 was formulated as a sterile, preserved isotonic solution for subcutaneous (SC) administration. A dose of 0.45 mg/kg was administered on Days 1 through 21 (“ON segment”) of each cycle without interruption, followed by a 7-day dose-free interval (“OFF segment”) in a 28-day treatment cycle. Injections were rotated amongst several sites including bilateral upper arms and thighs and mid and lower abdomen and buttocks. Whole blood specimens were collected at specified time points (e.g., see FIG. 1) in sodium heparin vacutainers. Briefly, two 12×75 mm test tubes per donor were labeled with specimen ID and appropriate cocktail name (see Table 2 below). 100 μl of sodium heparin anticoagulated whole blood was pipetted into the test tubes. The appropriate titrated volume of antibody cocktails was pipetted into the correspondingly labeled tubes. The appropriate titrated amount of CD14 PerCP, was added to all tubes to identify CD14 positive monocytes. The tubes were vortexed and were allowed to incubate for 30 minutes at room temperature in the dark. The red blood cells were lysed by adding 4 ml of an ammonium chloride-based whole blood lysing reagent to each tube. The tubes were capped and inverted to mix well prior to incubating in the dark at room temperature for 5 minutes. After the incubation, the tubes were centrifuged at 400 RCF for 5 minutes, the supernatant decanted and the tubes rack-raked to disperse cell pellet. The cells were washed with 2 ml of PBS with 1% BSA and centrifuged. To detect biotin conjugated CD45 RO antibody, the appropriate titrated amount of SA-BV605 (streptavidin (SA) conjugated to brilliant violet (BV) 605) was added to each tube and tubes were vortexed. After a 20 minute incubation in the dark at room temperature, the cells were washed with 2 ml of PBS with 1% BSA and centrifuged. The supernatant was decanted and the cells were rack-raked to disperse the cell pellet. Each tube received 500 μl of 1% paraformaldehyde and stored at 2-8 C until acquisition on the day of preparation. The tubes were acquired on a Becton Dickinson (BD) FACSCanto™ II flow cytometer with appropriate instrument settings, acquiring approximately 250,000 total events per tube. All analyses for flow cytometry were performed on WinList 7.0 (Verity Software House, Topsham, Me.) with a direct data exchange link to Microsoft® Excel 2003 or equivalent. For FIG. 1, baseline value (pre-dose at cycle 1, day 1, i.e., C1D1) was set at an arbitrary MESF value (e.g., 100) for each patient; all subsequent values obtained from the study were normalized to the baseline value. For FIG. 2, unnormalized MESF values are shown.

[3] = system: lactate dehydrogenase (LDH); assay: LDH levels in patients treated with TEN-010; format: in vivo, human; settings: non-NMC patient 002-021 (FIG. 2B), despite significant rise in CD11b levels
Text: Patients aged 18 years or older with histologically confirmed advanced solid tumors with progressive disease requiring therapy were enrolled in the study. In particular, patients with histologically confirmed advanced solid malignancy with progressive disease, NMC, or advanced aggressive diffuse large B cell lymphoma (DLBCL) were enrolled in the study. Patients with hemotologic malignancies were not enrolled in the study.
TEN-010 was formulated as a sterile, preserved isotonic solution for subcutaneous (SC) administration. A dose of 0.45 mg/kg was administered on Days 1 through 21 (“ON segment”) of each cycle without interruption, followed by a 7-day dose-free interval (“OFF segment”) in a 28-day treatment cycle. Injections were rotated amongst several sites including bilateral upper arms and thighs and mid and lower abdomen and buttocks.
LDH levels were measured using standard protocols, using a chemistry analyzer, e.g., Beckman Coulter. See, e.g., Lactate OSR6193 procedure published March 2012 (webcache.googleuserconent.com/search?q=cache:iyYi7vCetH4J:https://www.beckmancoulter.com/wsrportal/techdocs%3Fdocname%3D/cis/BAOSR6x93%2525%2525/EN_LACTATE_BAOSR6x93_US.doc+&cd=2&hl=en&ct=clnk&gl=us), incorporated by reference in its entirety.

LDH levels [3] | Structure (SMILES) | binding to bromodomains of the BET family [1] | CD11b levels following the off-drug segment (C2D1) ([2]; NMC patient 004-001) | effectiveness by C2D1 ([2]; NMC patient 004-001, suggested by CD11b increase, patient died shortly thereafter) | decrease of CD11b levels relative to baseline value ([2]; all 6 patients, 0.45 mg/kg SC Days 1-21 of 28-day cycle, by C1D15 vs pre-dose C1D1) | CD11b levels at start of second cycle (C2D1) ([2]; all patients except NMC patient 004-001, after 21 days on-drug and 7 days off-drug) | CD11b levels ([2]; non-NMC patient 002-021 (FIG. 2B))
 | Cc1sc2c(c1C)C(c1ccc(Cl)cc1)=N[C@@H](CC(=O)OC(C)(C)C)c1nnc(C)n1-2 [JQ1] | specifically binds |  |  |  |  | 
remained constant | Cc1sc2c(c1C)C(c1ccc(Cl)cc1)=N[C@@H](CC(=O)NCCCN1CCN(C)CC1)c1nnc(C)n1-2 [TEN-010] |  | dramatically increased | not effective | at least 50% | held steady | significant rise

Source: patent publication US20180193350A1, “TREATMENT OF NUT MIDLINE CARCINOMA” (Tensha Therapeutics, Inc., priority 2015, published 2018)
